From publication PMC8482815, “Targeting Host Glycolysis as a Strategy for Antimalarial Development” (Frontiers in Cellular and Infection Microbiology, 2021)
“And” between values parts separate entries of the source, which are not always exact repeats. Equal entries are not always repeated.

Tested on: human erythrocytes
Assay: Untargeted metabolomics and 13C-glucose tracing of enolase inhibitor treated erythrocytes
Format: cell-based
Conditions: 0h
Experimental: Freshly collected erythrocytes were washed, resuspended to 10% hematocrit in buffer [25mM HEPES (pH 7.4), 120mM NaCl, 5.4mM KCl, 1.8mM CaCl2, and 1mM NaH2PO4], incubated for 1 hour at 37°C, then centrifuged at 2000xg for 5 minutes at 4°C, resuspended in fresh wash buffer to 30-40% hematocrit, and split into 210µL aliquots of packed erythrocytes. […] All samples were incubated at 37°C shaking at 500 RPM. Triplicate samples of supernatants and packed erythrocytes were collected at 0, 0.5, 1, and 6-hour intervals and snap-frozen in liquid N2.
RBC and media samples were extracted at 1:10 and 1:20 dilutions, respectively, in 5:3:2 MeOH : MeCN:H2O v/v/v, and supernatants analyzed on a Thermo Vanquish UHPLC coupled to a Thermo Q Exactive mass spectrometer, as extensively described ([Nemkov et al., 2015]; [Nemkov et al., 2017]). The extraction buffer was supplemented with 40uM 3-^13C lactate to allow absolute quantification of lactate isotopologues, including lactate generated via glycolysis ([1,2,3-^13C3] enriched) vs. the pentose phosphate pathway ([2,3-^13C2] enriched), as described ([Reisz et al., 2016]). Metabolite assignments, peak area integration and isotopologues distributions were determined using Maven (Princeton University) ([Nemkov et al., 2015]; [Nemkov et al., 2017]).
Data were auto-scaled and normalized to zero-hour time points. Metabolites were removed from the dataset if greater than 50% of the samples contained missing values or the relative standard deviation among replicates exceeded 25%. Additionally, data was filtered using the interquartile range to reduce near-constant values from the experiment by 5%.
A principal component analysis of preprocessed data was plotted with the 95% confidence interval minimum volume enclosing ellipsoid for each respective group (MetaboAnalyst, cluster, plotly). A two-way repeated measures analysis of variance (ANOVA) was performed with multiple comparisons corrected for using a false discovery rate p-value cutoff of 0.05. Metabolite-Pathway analysis was performed using the R package of MetaboAnalyst, as previously described ([Xia and Wishart, 2010]). Metabolite-Protein nodal analysis was performed using omicsnet.ca and as previously described ([Zhou and Xia, 2018]).

[1] = treated erythrocytes, one value per replicate sample, polarity +
[2] = treated erythrocytes, one value per replicate sample, polarity -
[3] = treated erythrocytes, replicate samples

CC(C)(C)C(=O)OCOP(=O)(OCOC(=O)C(C)(C)C)C1CC(O)N(O)C1=O (stereo not shown) [POMSF]
AMP level (metabolomics signal) (replicate samples): 1.48E+06 and 1.22E+06 and 1.21E+06
ATP level (metabolomics signal) (replicate samples): 1.36E+04 and 1.16E+04 and 9.69E+03
Adenine level (metabolomics signal) (replicate samples): 1.41E+05 and 1.42E+05 and 1.51E+05
Cytosine level (metabolomics signal) (replicate samples): 4.50E+04 and 5.15E+04 and 1.27E+05
L-alanine level (metabolomics signal) (replicate samples): 6.40E+06 and 7.71E+06 and 9.55E+06
L-arginine level (metabolomics signal) (replicate samples): 1.10E+07 and 7.60E+06 and 2.77E+06
L-asparagine level (metabolomics signal) (replicate samples): 1.89E+06 and 2.56E+06 and 2.42E+06
L-aspartate level (metabolomics signal) (replicate samples): 1.71E+07 and 2.26E+07 and 2.06E+07
L-cysteine level (metabolomics signal) (replicate samples): 7.54E+05 and 3.33E+05 and 7.35E+04
L-glutamate level (metabolomics signal) (replicate samples): 1.88E+07 and 2.22E+07 and 2.32E+07
L-glutamine level (metabolomics signal) (replicate samples): 2.62E+07 and 2.59E+07 and 2.28E+07
L-histidine level (metabolomics signal) (replicate samples): 1.62E+06 and 1.23E+06 and 1.63E+06
L-isoleucine level (metabolomics signal) (replicate samples): 3.04E+07 and 2.95E+07 and 2.26E+07
L-leucine level (metabolomics signal) (replicate samples): 9.83E+07 and 1.22E+08 and 9.50E+07
L-lysine level (metabolomics signal) (replicate samples): 3.76E+06 and 3.81E+06 and 3.28E+06
L-methionine level (metabolomics signal) (replicate samples): 1.04E+07 and 1.29E+07 and 9.06E+06
L-phenylalanine level (metabolomics signal) (replicate samples): 4.95E+06 and 5.41E+06 and 4.32E+06
L-proline level (metabolomics signal) (replicate samples): 3.86E+07 and 3.62E+07 and 3.21E+07
L-serine level (metabolomics signal) (replicate samples): 1.54E+06 and 1.82E+06 and 2.05E+06
L-threonine level (metabolomics signal) (replicate samples): 2.66E+06 and 3.06E+06 and 2.69E+06
L-tryptophan level (metabolomics signal) (replicate samples): 5.64E+06 and 3.84E+06 and 3.64E+06
L-tyrosine level (metabolomics signal) (replicate samples): 1.11E+07 and 1.27E+07 and 8.94E+06
L-valine level (metabolomics signal) (replicate samples): 9.15E+07 and 1.15E+08 and 1.39E+08
dCMP level (metabolomics signal) (replicate samples): 3.07E+04 and 2.16E+04 and 2.21E+04
dTMP level (metabolomics signal) (replicate samples): 1.28E+06 and 1.67E+06 and 9.76E+05
glycine level (metabolomics signal) (replicate samples): 9.91E+05 and 9.30E+05 and 1.13E+06
N-Acyl-D-aspartate (C06380) metabolite signal [1]: 2.50E+05 and 2.72E+05 (2×)
Poly-gamma-D-glutamate (C05723) metabolite signal [1]: 1.72E+07 and 2.04E+07 and 1.59E+07
D-Ribitol 5-phosphate (C01068) metabolite signal [2]: 2.00E+04 and 3.48E+04 and 2.09E+04
D-glucono-1,5-lactone (C00198) metabolite signal [2]: 5.28E+05 and 7.59E+05 and 7.80E+05
L-Noradrenaline (C00547) metabolite signal [2]: 2.74E+05 and 1.74E+05 and 9.62E+04
Oxalosuccinate (C05379) metabolite signal [2]: 1.90E+05 and 1.88E+05 and 1.84E+05
Pyridoxamine (C00534) metabolite signal [2]: 3.31E+04 and 3.01E+04 and 2.36E+04
Thioredoxin disulfide (C00343) metabolite signal [2]: 8.00E+04 and 1.23E+05 and 3.03E+04
1-4-beta-D-Xylan (metabolite signal) [3]: 2.50E+05 and 2.94E+05 and 2.54E+05
2-Hydroxyglutarate/Citramalate (C02630) metabolite signal [3]: 2.14E+05 and 2.40E+05 and 2.04E+05
5-6-Dihydrothymine (C00906) metabolite signal [3]: 3.14E+05 and 3.41E+05 and 2.85E+05
5-10-Methenyltetrahydrofolate (metabolite signal) [3]: 2.33E+05 and 3.06E+05 and 3.71E+05
5-Hydroxyisourate (C11821) metabolite signal [3]: 2.99E+06 and 4.00E+06 and 4.10E+06
5-L-Glutamyl-taurine (metabolite signal) [3]: 1.28E+05 and 9.38E+04 and 1.74E+05
5-Oxoproline (metabolite signal) [3]: 1.06E+06 and 1.19E+06 and 1.05E+06
(S)(+)-Allantoin (C02350) metabolite signal [3]: 3.96E+04 and 4.19E+04 and 4.78E+04
Allantoate (C00499) metabolite signal [3]: 5.92E+05 and 4.20E+05 and 1.48E+05
Ascorbate (metabolite signal) [3]: 1.27E+05 and 1.55E+05 and 1.07E+05
CMP-N-acetylneuraminate (metabolite signal) [3]: 3.49E+04 and 6.40E+04 and 4.41E+04
Carnosine (metabolite signal) [3]: 1.74E+05 and 2.21E+05 and 3.49E+05
Citrate (C00158) metabolite signal [3]: 3.66E+04 and 3.31E+04 and 3.64E+04
Creatine (metabolite signal) [3]: 2.22E+08 and 2.62E+08 and 3.28E+08
Creatinine (metabolite signal) [3]: 3.21E+06 and 3.75E+06 and 4.22E+06
Cys-Gly (metabolite signal) [3]: 2.17E+06 and 2.00E+06 and 1.46E+06
D-Glucosamine (metabolite signal) [3]: 1.02E+05 and 8.07E+04 and 1.48E+05
D-Glucose (C00031) metabolite signal [3]: 6.82E+06 and 7.47E+06 and 6.93E+06
D-Ribose (C00121) metabolite signal [3]: 1.55E+05 and 2.41E+05 and 2.38E+05
Dehydroascorbate (metabolite signal) [3]: 1.97E+04 and 1.24E+04 and 6.28E+03
Dihydrofolate (metabolite signal) [3]: 2.52E+06 and 2.25E+06 and 7.96E+05
Dimethylglycine (metabolite signal) [3]: 8.88E+05 and 1.01E+06 and 1.45E+06
Diphosphate (C00013) metabolite signal [3]: 6.51E+03 and 2.62E+03 and 7.12E+02
Fumarate (C00122) metabolite signal [3]: 1.66E+05 and 1.93E+05 and 1.68E+05
Glutathione (C00051) metabolite signal [3]: 1.67E+08 and 1.41E+08 and 9.66E+07
Glutathione disulfide (metabolite signal) [3]: 3.84E+05 and 6.78E+05 and 4.93E+05
Hypoxanthine (C00262) metabolite signal [3]: 1.47E+05 and 1.29E+05 and 1.33E+05
IMP (C00130) metabolite signal [3]: 7.71E+04 and 2.73E+04 and 2.17E+04
Inosine (C00294) metabolite signal [3]: 9.47E+04 and 1.13E+05 and 1.20E+05
L-Citrulline (metabolite signal) [3]: 1.15E+06 and 1.84E+06 and 2.36E+06
L-Homoserine (metabolite signal) [3]: 2.11E+05 and 2.32E+05 and 1.47E+05
Lactate (C01432) metabolite signal [3]: 7.24E+06 and 8.30E+06 and 8.24E+06
Malate (C00149) metabolite signal [3]: 5.52E+05 and 5.73E+05 and 5.31E+05
Mannitol (C00392) metabolite signal [3]: 8.67E+04 and 1.22E+05 and 1.45E+05
N-Acetylneuraminate (metabolite signal) [3]: 2.28E+04 and 3.32E+04 and 3.78E+04
N-Glycoloyl-neuraminate (metabolite signal) [3]: 2.22E+05 and 2.27E+05 and 1.72E+05
NAD+ (C00003) metabolite signal [3]: 4.26E+04 and 2.68E+05 and 2.34E+05
Nicotinamide (C00153) metabolite signal [3]: 1.57E+07 and 2.35E+07 and 2.66E+07
Ornithine (metabolite signal) [3]: 2.19E+06 and 2.53E+06 and 2.49E+06
Oxaloacetate (C00036) metabolite signal [3]: 6.97E+04 and 6.01E+04 and 4.98E+04
Phosphoserine (metabolite signal) [3]: 4.87E+04 and 2.38E+05 and 2.25E+05
Putrescine (metabolite signal) [3]: 4.73E+04 and 6.21E+04 and 7.27E+04
Pyridoxal (C00250) metabolite signal [3]: 5.83E+04 and 4.46E+04 and 6.28E+04
Pyruvate (C00022) metabolite signal [3]: 1.18E+06 and 1.33E+06 and 1.20E+06
S-Glutathionyl-L-cysteine (metabolite signal) [3]: 1.80E+05 and 2.28E+05 and 9.16E+04
Sedoheptulose 1-phosphate (C06222) metabolite signal [3]: 5.23E+04 and 6.25E+04 and 4.82E+04
Spermidine (metabolite signal) [3]: 1.16E+07 and 9.80E+06 and 1.05E+07
Spermine (metabolite signal) [3]: 9.70E+06 and 8.73E+06 and 7.99E+06
Succinate (C00042) metabolite signal [3]: 9.79E+04 and 1.14E+05 and 1.10E+05
Thymidine (C00214) metabolite signal [3]: 2.50E+04 and 1.31E+04 and 1.15E+04
UDP (C00015) metabolite signal [3]: 6.45E+05 and 4.64E+05 and 1.60E+05
UDP-N-acetyl-D-glucosamine (metabolite signal) [3]: 3.60E+04 and 3.50E+04 and 3.40E+04
UDP-glucose (C00029) metabolite signal [3]: 1.12E+05 and 1.15E+05 and 9.19E+04
Urate (C00366) metabolite signal [3]: 4.94E+04 and 4.14E+04 and 3.72E+04
Xanthine (C00385) metabolite signal [3]: 2.85E+05 and 3.63E+05 and 3.38E+05
alpha-D-Glucosamine 1-phosphate (metabolite signal) [3]: 1.10E+06 and 1.63E+06 and 3.07E+06
alpha-D-Ribose 1-phosphate (C00620) metabolite signal [3]: 1.48E+05 and 1.44E+05 and 1.26E+05
gamma-Glutamyl-gamma-aminobutyrate (metabolite signal) [3]: 8.69E+04 and 8.91E+04 and 1.07E+05
gamma-L-Glutamyl-D-alanine (metabolite signal) [3]: 2.41E+04 and 3.08E+04 and 2.52E+04
gamma-L-Glutamyl-L-cysteine (metabolite signal) [3]: 4.83E+04 and 5.61E+04 and 6.44E+03
